From PubChem BioAssay (NCI)
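Growth conditions: 96-well plates. Treatment: test compound, 48 hours, 5 concentrations. Analysis: linear interpolation between bracketing concentrations; unreached endpoints set to highest concentration. At the GI50, growth is halved. TGI marks complete inhibition of growth.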

Tests used:
Assay in all cases: NCI tumour cell line growth inhibition, 48 h; in the data active = GI50 below about 0.43 µM; inactive = the rest
786-0 renal = test system: 786-0 renal
A549 NSCLC = test system: A549 NSCLC
ACHN renal = test system: ACHN renal
BT-549 breast = test system: BT-549 breast
CAKI-1 renal = test system: CAKI-1 renal
CCRF-CEM leukemia = test system: CCRF-CEM leukemia
DU-145 prostate = test system: DU-145 prostate
EKVX NSCLC = test system: EKVX NSCLC
HCT-15 colon = test system: HCT-15 colon
HOP-62 NSCLC = test system: HOP-62 NSCLC
HOP-92 NSCLC = test system: HOP-92 NSCLC
HS 578T breast = test system: HS 578T breast
IGROV1 ovarian = test system: IGROV1 ovarian
K-562 leukemia = test system: K-562 leukemia
KM12 colon = test system: KM12 colon
M14 melanoma = test system: M14 melanoma
MALME-3M melanoma = test system: MALME-3M melanoma
MDA-MB-231 breast = test system: MDA-MB-231 breast
NCI-H23 lung = test system: NCI-H23 lung
NCI-H460 lung = test system: NCI-H460 lung
NCI-H522 lung = test system: NCI-H522 lung
NCI/ADR-RES ovarian = test system: NCI/ADR-RES ovarian
OVCAR-5 ovarian = test system: OVCAR-5 ovarian
OVCAR-8 ovarian = test system: OVCAR-8 ovarian
RPMI-8226 leukemia = test system: RPMI-8226 leukemia
RXF 393 renal = test system: RXF 393 renal
SF-268 CNS = test system: SF-268 CNS
SF-295 CNS = test system: SF-295 CNS
SF-539 CNS = test system: SF-539 CNS
SK-MEL-2 melanoma = test system: SK-MEL-2 melanoma
SK-MEL-28 melanoma = test system: SK-MEL-28 melanoma
SK-OV-3 ovarian = test system: SK-OV-3 ovarian
SN12C renal = test system: SN12C renal
SNB-19 CNS = test system: SNB-19 CNS
SNB-75 CNS = test system: SNB-75 CNS
SR leukemia = test system: SR leukemia
SW-620 colon = test system: SW-620 colon
T-47D breast = test system: T-47D breast
TK-10 renal = test system: TK-10 renal
U251 CNS = test system: U251 CNS
UACC-257 melanoma = test system: UACC-257 melanoma
UACC-62 melanoma = test system: UACC-62 melanoma

N#Cc1cnc2ccc(-c3cnc4[nH]ncc4c3)cc2c1N1CCc2cc(F)c(Cl)cc21
5120 nM: TGI (786-0 renal)
673 nM: TGI (HOP-92 NSCLC)
> 36200 nM: TGI (TK-10 renal)
428 nM: TGI (SNB-75 CNS)
> 100000 nM: TGI (A549 NSCLC) | TGI (ACHN renal) | TGI (CAKI-1 renal) | TGI (CCRF-CEM leukemia) | TGI (DU-145 prostate) | TGI (EKVX NSCLC) | TGI (HCT-15 colon) | TGI (K-562 leukemia) | TGI (KM12 colon) | TGI (M14 melanoma) | TGI (NCI-H23 lung) | TGI (NCI-H460 lung) | TGI (NCI/ADR-RES ovarian) | TGI (OVCAR-5 ovarian) | TGI (OVCAR-8 ovarian) | TGI (RPMI-8226 leukemia) | TGI (SK-MEL-28 melanoma) | TGI (SN12C renal) | TGI (SR leukemia) | TGI (SW-620 colon) | TGI (T-47D breast) | TGI (U251 CNS) | TGI (UACC-257 melanoma)
716 nM: TGI (BT-549 breast)
> 35400 nM: TGI (SNB-19 CNS)
544 nM: TGI (IGROV1 ovarian)
599 nM: TGI (RXF 393 renal) | TGI (SF-295 CNS)
1100 nM: TGI (HOP-62 NSCLC)
591 nM: TGI (SK-OV-3 ovarian)
648 nM: TGI (MALME-3M melanoma)
725 nM: TGI (NCI-H522 lung)
6700 nM: TGI (MDA-MB-231 breast)
406 nM: TGI (HS 578T breast)
564 nM: TGI (SF-539 CNS)
active: GI50 (786-0 renal) 370 nM | GI50 (A549 NSCLC) 292 nM | GI50 (ACHN renal) 360 nM | GI50 (BT-549 breast) 232 nM | GI50 (CAKI-1 renal) 250 nM | GI50 (CCRF-CEM leukemia) 355 nM | GI50 (DU-145 prostate) 372 nM | GI50 (EKVX NSCLC) 309 nM | GI50 (HCT-15 colon) 293 nM | GI50 (HOP-62 NSCLC) 255 nM | GI50 (HOP-92 NSCLC) 204 nM | GI50 (HS 578T breast) 151 nM | GI50 (IGROV1 ovarian) 177 nM | GI50 (K-562 leukemia) 360 nM | GI50 (KM12 colon) 400 nM | GI50 (M14 melanoma) 322 nM | GI50 (MALME-3M melanoma) 232 nM | GI50 (MDA-MB-231 breast) 302 nM | GI50 (NCI-H23 lung) 406 nM | GI50 (NCI-H460 lung) 327 nM | GI50 (NCI-H522 lung) 254 nM | GI50 (NCI/ADR-RES ovarian) 334 nM | GI50 (OVCAR-5 ovarian) 371 nM | GI50 (OVCAR-8 ovarian) 348 nM | GI50 (RPMI-8226 leukemia) 402 nM | GI50 (RXF 393 renal) 171 nM | GI50 (SF-268 CNS) 296 nM | GI50 (SF-295 CNS) 206 nM | GI50 (SF-539 CNS) 230 nM | GI50 (SK-MEL-2 melanoma) 222 nM | GI50 (SK-MEL-28 melanoma) 330 nM | GI50 (SK-OV-3 ovarian) 214 nM | GI50 (SN12C renal) 303 nM | GI50 (SNB-19 CNS) 399 nM | GI50 (SNB-75 CNS) 145 nM | GI50 (SR leukemia) 262 nM | GI50 (SW-620 colon) 389 nM | GI50 (T-47D breast) 214 nM | GI50 (TK-10 renal) 275 nM | GI50 (U251 CNS) 373 nM | GI50 (UACC-257 melanoma) 312 nM | GI50 (UACC-62 melanoma) 250 nM
518 nM: TGI (SK-MEL-2 melanoma)
